From PubChem BioAssay AID602239 (National Center for Advancing Translational Sciences (NCATS), 2012)

system: mouse liver microsomes with NADPH, LC-MS/MS; experiment: qHTS for Activators of Human alpha-Glucosidase as a Potential Chaperone Treatment of Pompe Disease: Metabolic Stability in presence of NADPH; settings: at 5 µM; stronger effect = higher value (more stable)
Source text: Alpha-glucosidase is responsible for hydrolysis of terminal, non-reducing 1,4-linked alpha-D-glucose residues with release of alpha-D-glucose. It is a lysosomal hydrolase that is required for the degradation of a small percentage (1-3%) of cellular glycogen in human. Deficiency of this enzyme results in glycogen-storage disease type II (GSDII), also referred to as Pompe disease, an autosomal recessive disorder. Structurally normal glycogen is accumulated in lysosomes and cytoplasm in affected patients, primarily in muscle tissues. Excessive glycogen storage within lysosomes may interrupt normal functioning of other organelles and leads to cellular injury. In turn, this leads to enlargement and dysfunction of the entire organ involved (eg, cardiomyopathy and muscle weakness). It has reported that the improper folding and trafficking of alpha-glucosidase resulting from the genetic mutations may account for a significant number of Pompe patients. […] We optimized this alpha-glucosidase assay in 1536-well plate format for identifying the novel small molecule inhibitors with the structures other than the sugar analogs in order to develop the new pharmacological chaperones. Mouse liver microsomes are created through broken up endoplasmic reticulum from mouse liver. These liver microsomes contain many drug metabolizing enzymes, such as Cytochome P-450s and flavin-containing monooxygenases. […] NIH Chemical Genomics Center [NCGC] NIH Molecular Libraries Probe Production Centers Network [MLPCN] MLPCN Grant: MH084841 Assay Submitter (PI): Wei Zheng
5uM of compound is incubated with mouse liver microsome; the reference compounds are verapamil and warfarin. Compounds are incubated and samples are analyzed with LC-MS/MS.

percent remaining (higher = more stable) [%] | SMILES
4 | CCCN1CNc2c(c(=O)[nH]c(=S)n2CCc2ccc(OC)c(OC)c2)C1
2 | CCCN1CNc2c(c(=O)[nH]c(=S)n2CCc2cccc(Cl)c2Cl)C1
63 | CCCN1CNc2c(c(=O)[nH]c(=S)n2Cc2ccc(OC)c(OC)c2)C1
